The record followed here is ChEMBL document CHEMBL3507680, “University of Dundee, Gates Library screen for HepG2 cell viability”.

The series is described as follows: Human HepG2 cell viability assay in 384 well format. Also noted: dose 125 nL, time 70.5 hour; concentration not given beside the values. The format is toxicity, cell-based. The note with it: HepG2 cells, read-out: Inhibition.
`O=S(=O)(NCC1(c2cccs2)CCCC1)c1cccnc1`: the cytotoxicity at 70.5 h was -4.26%.

For the compound `CC(O)CN1CCN(C(=O)c2ccc(N(C)C)nn2)CC1` (stereo not given), the cytotoxicity at 70.5 h was -4.33%.

With `Cc1ccc(-c2ccnc(NC(C)c3ncc[nH]3)n2)c(C)n1` (stereo not given), the cytotoxicity at 70.5 h was -10.5%.

Consider `CCn1c(C2CCN(C(=O)c3cc(C4CC4)on3)CC2)nn(C)c1=O`, for which the cytotoxicity at 70.5 h is -6.56%.

In the case of `O=C1CC2(CCN(CC3CC3)C2)CN1c1ccc2c(c1)OCO2` (stereo not given), the cytotoxicity at 70.5 h was 3.77%.

Consider `Cc1nc(C2CCNCC2)cc(N2CCOc3ccccc3C2)n1`, for which the cytotoxicity at 70.5 h is -4.26%.

Take `c1cncc(CN2CCc3ncnc(C4CC4)c3CC2)c1`: the cytotoxicity at 70.5 h was 2.26%.

On to `CN1CCN(c2ccccc2NC(=O)NCCc2ccc(O)cc2)CC1`, for which the cytotoxicity at 70.5 h is -6.51%.

For `Cc1nn(C)c(N(C)C)c1CNCCCN(C(C)C)S(C)(=O)=O`, the cytotoxicity at 70.5 h was 8.55%.

As for `COc1ccccc1OC1CN(C(=O)C(c2ccccc2F)N(C)C)C1` (stereo not given), the cytotoxicity at 70.5 h was -0.928%.

In the case of `Cc1cc(=O)n(CC(=O)Nc2ccc(Cl)cc2)nc1C`, the cytotoxicity at 70.5 h is -2.9%.

For the compound `Cc1ccc(CC(=O)N2CC[C@@H]3NC(=O)CC[C@@H]32)cc1`, the cytotoxicity at 70.5 h was found to be 4.9%.

For the compound `CN(Cc1nccn1CC(F)(F)F)C(=O)c1ccc2c(c1)OCO2`, the cytotoxicity at 70.5 h was -11%.

Consider `O=C(c1cc[nH]c(=O)c1)N1CCn2c(nnc2-c2ccccc2)C1`, for which the cytotoxicity at 70.5 h was -4.86%.

Consider `COCCOc1cccc(C(=O)N2CCCC(n3ccnc3)C2)c1` (stereo not given), for which the cytotoxicity at 70.5 h was -4.62%.

On to `Cc1nc(C)n(C2CCCN(C(=O)c3ccccc3C)C2)n1` (stereo not given), for which the cytotoxicity at 70.5 h is -7.9%.

Consider `Cc1nccn1CC1CCCN(S(=O)(=O)c2cnn(C)c2)C1` (stereo not given), for which the cytotoxicity at 70.5 h is -2.81%.

For `Cc1cnn(C(C)C2CC2)c1NC(=O)c1cnccn1` (stereo not given), the cytotoxicity at 70.5 h is -11.2%.

Consider `Cc1cccc(CS(=O)(=O)Cc2ccn(C)c(=O)c2)c1`, for which the cytotoxicity at 70.5 h is -12.8%.

Turning to `Cc1cc(C2CCCCN2C(=O)c2ccsc2)nc2nccn12` (stereo not given), the cytotoxicity at 70.5 h came to 6.22%.

As to `O=C(NC1CC(=O)N(C2Cc3ccccc3C2)C1)c1ccsc1` (stereo not given), the cytotoxicity at 70.5 h was -3.74%.

`Cc1nonc1CN(C)Cc1c[nH]nc1-c1ccc(F)cc1F`: the cytotoxicity at 70.5 h is -14.1%.

Consider `COc1cccc2[nH]cc(CCNC(=O)N3CCOCC3C3CC3)c12` (stereo not given), for which the cytotoxicity at 70.5 h was 23.2%.

`O=C(c1ccco1)N1CCC2(CCC(=O)N2Cc2ccncc2)CC1`: the cytotoxicity at 70.5 h was -2.64%.

As to `O=C(c1ccc2[nH]ccc2c1)N1Cc2nc(CN3CCCCC3)oc2C1`, the cytotoxicity at 70.5 h was -3.84%.

On to `CCc1ccc(C(=O)N2CCCC3(CCCC(=O)N3C)C2)cc1` (stereo not given), for which the cytotoxicity at 70.5 h was -10.6%.

On to `COc1ccc(C(=O)N2C[C@@H](NC(=O)N(C)C)[C@H](C(C)C)C2)c(OC)n1`, for which the cytotoxicity at 70.5 h is -11.2%.

As to `Cc1ccc(NC2CCN(C(=O)COCC3CC3)CC2)nn1`, the cytotoxicity at 70.5 h was -2.64%.

`Cn1c(CN2CCCC(c3noc(C4CC4)n3)C2)cc(=O)n(C)c1=O` (stereo not given): the cytotoxicity at 70.5 h is -11.3%.

Consider `Cc1ccc(CN(C)C(=O)c2scnc2C)cc1`, for which the cytotoxicity at 70.5 h was -3.98%.

In the case of `CCCN(Cc1nccn1C)C(=O)c1cc(C)nc(C)n1`, the cytotoxicity at 70.5 h was -9.67%.

For `CC[C@H]1CN2CC[C@H]1C[C@@H]2CNC(=O)c1ccco1`, the cytotoxicity at 70.5 h was -1.78%.

Consider `O=C(CCn1ccc2ccc(Cl)cc21)NCc1ccc(C(=O)O)cc1`, for which the cytotoxicity at 70.5 h is -0.8%.

In the case of `O=C(OC1CCC1)c1ncccc1C(F)(F)F`, the cytotoxicity at 70.5 h was -3.86%.

Take `O=C(c1sccc1C1CC1)N1CCN(c2nccs2)CC1`: the cytotoxicity at 70.5 h was 6.38%.

For `CCOCC(=O)N(C)Cc1nc(C(F)(F)F)cs1`, the cytotoxicity at 70.5 h was found to be 20.5%.

Turning to `CCS(=O)(=O)N1CC[C@H](OC)[C@@H]1Cc1ccncc1`, the cytotoxicity at 70.5 h amounted to 3.22%.

Take `Cc1ccc(NC(=O)N2CCCC(O)C2)c(Br)c1` (stereo not given): the cytotoxicity at 70.5 h was determined as 6.64%.

Consider `Cc1cnc(CC2COCCN(Cc3nccn3C)C2)cn1` (stereo not given), for which the cytotoxicity at 70.5 h was -1.89%.

`CC(=O)NS(=O)(=O)c1ccc2c(c1)N(C)CCC2`: the cytotoxicity at 70.5 h is -5.49%.

For `CC(C)(NCC(=O)NC(=O)NC1CC1)c1ccc2c(c1)OCO2`, the cytotoxicity at 70.5 h is -3.04%.

Turning to `CNc1ncc(-c2csc(NC(=O)C[C@H]3COCCN3)n2)cn1`, the cytotoxicity at 70.5 h was -11.4%.

Consider `COCCN(Cc1ccc(C)cc1)CC1CCOC1` (stereo not given), for which the cytotoxicity at 70.5 h was -5.9%.

For the compound `CCCNC(=O)CN1CCOC(CC)C1` (stereo not given), the cytotoxicity at 70.5 h is -15.7%.

Regarding `CNS(=O)(=O)c1ccc(C(=O)N2CCCC2c2ccccc2)o1` (stereo not given), the cytotoxicity at 70.5 h was -14.1%.

Take `CCCc1cnc(C)nc1N1CCC(F)(F)CC1`: the cytotoxicity at 70.5 h is -9.65%.

Take `CC(C)(C)c1nc(CN(Cc2cccnc2)C2CN3CCC2CC3)no1` (stereo not given): the cytotoxicity at 70.5 h was -1.01%.

Consider `CC(C)(C)NC(=O)CNc1ccc(C#N)c(C(F)(F)F)c1`, for which the cytotoxicity at 70.5 h is -5.25%.

As for `CCc1ccc(CN2CCN(c3cccc(OC)c3)C(=O)C2)nc1`, the cytotoxicity at 70.5 h is -8.23%.

For the compound `CCOc1ccc(NC2CCN(C(C)C)C2=O)cn1` (stereo not given), the cytotoxicity at 70.5 h is -3.98%.

For the compound `CCOCC(O)CN1CCN(C(=O)c2ccc(OC)cc2)CC1` (stereo not given), the cytotoxicity at 70.5 h was -9.9%.

As for `COCCCN(Cc1ccccn1)Cc1ccnn1C1CCCCO1` (stereo not given), the cytotoxicity at 70.5 h stood at 13.4%.

For `CC(C)S(=O)(=O)N1CCCC(c2nnc(Cn3ccnc3)n2C)C1` (stereo not given), the cytotoxicity at 70.5 h was -7.74%.

With `CC(C)CNC(=O)N1CCC2(CC1)OC(C(N)=O)Cn1ccnc12` (stereo not given), the cytotoxicity at 70.5 h was -4.1%.

In the case of `CN(C)CCCNC(=O)C1CC(=O)N(c2n[nH]c3cccc(F)c23)C1` (stereo not given), the cytotoxicity at 70.5 h was -26.2%.

As for `CC(C)c1ccc(OCC(=O)N2CCOCC2c2ncon2)cc1` (stereo not given), the cytotoxicity at 70.5 h was -8.54%.

As to `CC(=O)Nc1ccc(Cl)c(C(=O)N(C)Cc2nc(C)c[nH]2)c1`, the cytotoxicity at 70.5 h is -8.28%.

Consider `COc1ccc(-c2noc(C(N)CCSC)n2)cc1` (stereo not given), for which the cytotoxicity at 70.5 h was 23.9%.

With `CC1COCCN1Cc1nc(-c2ccsc2)no1` (stereo not given), the cytotoxicity at 70.5 h was -3.54%.

Consider `CCn1nc(C)c(CNCCn2cc(C)cn2)c1C`, for which the cytotoxicity at 70.5 h was -4.46%.

Consider `COCC(C)NC(=O)Nc1cc(-c2ccccc2C)nn1CCO` (stereo not given), for which the cytotoxicity at 70.5 h was -4.5%.

Turning to `Cc1n[nH]c(C2CN(C(=O)c3ccoc3C)CCO2)n1` (stereo not given), the cytotoxicity at 70.5 h stood at 1.53%.

Turning to `CCN1CC2(CC1=O)CN(C(=O)c1ccsc1)CCN(C(=O)N(C)C)C2` (stereo not given), the cytotoxicity at 70.5 h was found to be 3.77%.

On to `CN(C)Cc1ccnc(C2CCCN2Cc2ccc3ncccc3c2)n1` (stereo not given), for which the cytotoxicity at 70.5 h was determined as 1.4%.

In the case of `CN(C)C(=O)NCC(=O)N1CCCC2(CCC(=O)N(CC3CC3)C2)C1` (stereo not given), the cytotoxicity at 70.5 h is -13.6%.

On to `CCn1ncc(CNC(=O)c2cn(CCC3CCCCN3)nn2)c1C` (stereo not given), for which the cytotoxicity at 70.5 h was -6.28%.

As for `Cn1nc(C2CNCCO2)cc1CCOc1ccc(Cl)cc1` (stereo not given), the cytotoxicity at 70.5 h came out at 7.97%.

With `Nc1nc2c(c(=O)[nH]1)CCN(C(=O)c1ccccc1N1CCCC1)C2`, the cytotoxicity at 70.5 h is 0.043%.

Regarding `Cc1ccc(CN2CCN(Cc3ccc(N(C)C)nc3)CC2=O)cc1C`, the cytotoxicity at 70.5 h is -1.36%.

With `COc1cccc(NC(=O)Cn2c(=O)nc(N)c3cc(C)sc32)c1`, the cytotoxicity at 70.5 h was -17.3%.

On to `Cc1nccn1C1CCCN(C(=O)c2cccc(Cn3ccnc3)c2)C1` (stereo not given), for which the cytotoxicity at 70.5 h was -1.32%.

As to `O=C(O)c1ccn(-c2ccccc2NS(=O)(=O)c2cccc(F)c2)n1`, the cytotoxicity at 70.5 h was 7.58%.

Turning to `CCn1cc(CNC2CCN(c3cccc(C)c3C)CC2)cn1`, the cytotoxicity at 70.5 h was -6.01%.

On to `Oc1cccc(C2CN(c3nnc(C4CC4)s3)CCO2)c1` (stereo not given), for which the cytotoxicity at 70.5 h is -4.99%.

With `O=C(C1CCOCC1)N1CCC2(CC1)CC(Oc1ccccc1)CO2` (stereo not given), the cytotoxicity at 70.5 h came out at 3.04%.

As to `CCn1c(SCC(=O)N2CCCC2)nc2cc(C)[nH]c2c1=O`, the cytotoxicity at 70.5 h amounted to 36.5%.

Turning to `CCN1CCN(C(=O)CCn2cccc2)CC1`, the cytotoxicity at 70.5 h was -12.8%.

For the compound `CCc1nn(C)c(Cl)c1CN(CC)Cc1cnn(CC)c1`, the cytotoxicity at 70.5 h was -6.7%.

Turning to `COc1ccc(C(=O)Nc2cnn(CCN3CCOCC3)c2)c(O)c1`, the cytotoxicity at 70.5 h amounted to 0.79%.

As for `Cn1cc(CN2CCn3cc(CNC(=O)CC4CC4)nc3C2)cn1`, the cytotoxicity at 70.5 h is -7.17%.

For the compound `CCc1nc(CN2CCCC(N(C)Cc3cnc(C)cn3)C2)no1` (stereo not given), the cytotoxicity at 70.5 h was -71.2%.

Regarding `OCCN(CCO)Cc1ccc(Br)c2cccnc12`, the cytotoxicity at 70.5 h is -1.86%.

With `CCc1nc(CC(=O)N2CCN(c3cnccn3)CC2)cs1`, the cytotoxicity at 70.5 h is -0.0277%.

Regarding `CC(C)(C)c1nc(CN2CCCN(Cc3cccs3)CC2)no1`, the cytotoxicity at 70.5 h was -18.1%.

Turning to `Cn1cc(NC(=O)N2CCCC2c2cccnc2)ccc1=O` (stereo not given), the cytotoxicity at 70.5 h was -3.14%.

Consider `COCCCNCc1cc(O)c2cc(C)cc(C)c2n1`, for which the cytotoxicity at 70.5 h is -5.24%.

As for `CC(=O)N1CCO[C@@H]2CN(Cc3cccc(Cl)c3)C[C@@H]2C1`, the cytotoxicity at 70.5 h was -2.75%.

As for `CCCn1[nH]cc/c1=N\C(=O)CN1CCCC1c1c(C)nn(C)c1C` (stereo not given), the cytotoxicity at 70.5 h is 16.9%.

For `Cc1ccc(C)c(CC(=O)NC2CCS(=O)(=O)CC2)c1`, the cytotoxicity at 70.5 h was -10.2%.

On to `CC(=O)N1CCOC(c2nc(N(C)C)ncc2-c2cccc(F)c2)C1` (stereo not given), for which the cytotoxicity at 70.5 h is -7.24%.

As to `COCCN(Cc1ccccn1)C(=O)c1ccc(=O)n(C)c1`, the cytotoxicity at 70.5 h turned out to be 1.44%.

In the case of `COCC(=O)N1CCCn2c(CN3CCCC3)nnc2C1`, the cytotoxicity at 70.5 h is -4.43%.

With `Cc1[nH]c(=O)c(C#N)cc1C(=O)N1C[C@@H](CN2CCCC2)C[C@H](CO)C1`, the cytotoxicity at 70.5 h is -7.24%.

`CC(C)c1noc([C@@H]2C[C@H](NS(=O)(=O)Cc3ccccc3)CN2C)n1`: the cytotoxicity at 70.5 h was -0.576%.

`COCC(=O)N1CCC(c2nccn2CC2CC2)CC1`: the cytotoxicity at 70.5 h is -8.88%.

In the case of `Cc1ccc(C(=O)N(C)CC(=O)Nc2cccc(C)n2)cn1`, the cytotoxicity at 70.5 h was -6.04%.

Consider `CC[C@@H](c1ccccc1)n1c(CCN)n[nH]c1=O`, for which the cytotoxicity at 70.5 h was -5.25%.

Take `Cc1nc(CN2CCCC(N(C)CC(=O)Nc3cccnc3)C2)no1` (stereo not given): the cytotoxicity at 70.5 h was found to be 15.1%.

As for `CCN1C(=O)CCC12CCN(S(=O)(=O)c1ccccc1)CC2`, the cytotoxicity at 70.5 h was -4.14%.

Turning to `Cc1cc(=O)n(CC(=O)NCCC(C)C)c(-c2cccc(Cl)c2)n1`, the cytotoxicity at 70.5 h was -1.79%.
